Reference: US9260429B2, “Pyrido[3,4-B]indoles and methods of use” (Medivation Technologies, Inc., priority 2008, dated 2016)

How the values were obtained:
[1] = biological target: T1, human recombinant histamine H1 receptor (Homo sapiens, UniProt P35367); test: Histamine H1 radioligand binding ([3H]Pyrilamine); conditions: 1 μM; read-out: Binding data (Percentage Inhibition) Histamine Binding (1 μM) H1
T1 construct: expressed in transfected cells; host or cells: CHO cells
Description: To evaluate in radioligand binding assays the activity of compounds of the invention, human recombinant histamine H1 receptor expressed in Chinese hamster ovary (CHO) cells (De Backer, M. D. et al., Biochem. Biophys. Res. Comm. 197(3):1601, 1993) in a modified Tris-HCl buffer (50 mM Tris-HCl, pH 7.4, 2 mM MgCl2, 100 mM NaCl, 250 mM Sucrose) was used. Compounds of the invention were incubated with 1.2 nM [^3H]Pyrilamine for 180 minutes at 25° C. Non-specific binding was estimated in the presence of 1 μM pyrilamine. Receptor proteins were filtered and washed, the filters were then counted to determine [^3H]Pyrilamine specifically bound. […] Biochemical assay results are presented as the percent inhibition of specific binding in Table 3.

[2] = biological target: T2, human recombinant histamine H2 receptor (Homo sapiens, UniProt P25021); test: Histamine H2 radioligand binding ([125I]Aminopotentidine); conditions: 1 μM; inhibition of specific [125I]Aminopotentidine binding; read-out: Binding data (Percentage Inhibition) Histamine Binding (1 μM) H2
T2 construct: expressed in transfected cells; host or cells: CHO-K1 cells
T2 sequence (P25021 whole entry): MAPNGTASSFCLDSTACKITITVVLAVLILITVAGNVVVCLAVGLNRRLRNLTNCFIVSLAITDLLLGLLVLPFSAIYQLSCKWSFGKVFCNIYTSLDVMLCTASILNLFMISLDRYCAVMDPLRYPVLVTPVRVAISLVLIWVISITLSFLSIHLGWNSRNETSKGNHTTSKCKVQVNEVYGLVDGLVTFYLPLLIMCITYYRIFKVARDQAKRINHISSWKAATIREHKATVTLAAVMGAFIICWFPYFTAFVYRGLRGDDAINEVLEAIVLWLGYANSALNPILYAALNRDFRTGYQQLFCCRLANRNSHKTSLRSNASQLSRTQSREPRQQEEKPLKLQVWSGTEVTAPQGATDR
Description: To evaluate in radioligand binding assays the activity of compounds of the invention, human recombinant histamine H2 receptor expressed in Chinese hamster ovary (CHO) K1 cells (Ruat, M., Proc. Natl. Acad. Sci. USA. 87(5):1658, 1990) in a 50 mM Phosphate buffer, pH 7.4 was used. Compounds of the invention were incubated with 0.1 nM [^125I]Aminopotentidine for 120 minutes at 25° C. Non-specific binding was estimated in the presence of 3 μM Tiotidine. Receptor proteins were filtered and washed, the filters were then counted to determine [^125I]Aminopotentidine specifically bound. Compounds were screened at 1 μM or lower, using 1% DMSO as vehicle. Biochemical assay results are presented as the percent inhibition of specific binding in Table 3.

[3] = biological target: T3, human recombinant dopamine D2L receptor (Homo sapiens, UniProt P14416); test: Dopamine D2L radioligand binding ([3H]Spiperone); conditions: 2 h, 1 μM ligand conc.; read-out: Percent Inhibition of ligand binding Dopamine (1 μM ligand conc.) D2L
T3 construct: expressed in transfected cells; host or cells: CHO cells
T3 sequence (P14416 whole entry): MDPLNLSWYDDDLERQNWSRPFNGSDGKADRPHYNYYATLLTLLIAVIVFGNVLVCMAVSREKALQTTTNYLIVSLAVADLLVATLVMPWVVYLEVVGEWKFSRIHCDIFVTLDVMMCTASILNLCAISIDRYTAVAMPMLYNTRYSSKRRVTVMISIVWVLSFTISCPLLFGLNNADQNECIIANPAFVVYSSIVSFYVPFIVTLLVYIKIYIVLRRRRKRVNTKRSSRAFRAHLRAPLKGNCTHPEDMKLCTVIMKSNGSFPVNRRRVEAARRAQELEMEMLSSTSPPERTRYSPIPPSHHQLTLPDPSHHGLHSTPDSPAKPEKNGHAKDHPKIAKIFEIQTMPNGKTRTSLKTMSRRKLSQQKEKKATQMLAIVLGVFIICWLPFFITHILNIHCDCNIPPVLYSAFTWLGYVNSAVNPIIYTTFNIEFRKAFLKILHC
Description: To evaluate in radioligand binding assays the activity of compounds of the invention, human recombinant dopamine D2L receptor expressed in Chinese hamster ovary (CHO) cells (Grandy, D. K. et al. Proc. Natl. Acad. Sci. USA. 86:9762, 1989; Hayes, G. et al., Mol. Endocrinol. 6:920, 1992) in a modified Tris-HCl buffer (50 mM Tris-HCl, pH 7.4, 1.4 mM Ascorbic Acid, 0.001% BSA, 150 mM NaCl) was used. Compounds of the invention were incubated with 0.16 nM [^3H]Spiperone for 120 minutes at 25° C. Non-specific binding was estimated in the presence of […] Haloperidol. Receptor proteins were filtered and washed, the filters were then counted to determine [^3H]Spiperone specifically bound. Compounds were screened at 1 μM or lower, using 1% DMSO as vehicle. Biochemical assay results are presented as the percent inhibition of specific binding in Table 4.

[4] = biological target: T4, human recombinant serotonin (5-Hydroxytryptamine) 5-HT2A receptor (Homo sapiens, UniProt P28223); test: Serotonin 5-HT2A radioligand binding ([3H]Ketanserin); conditions: 1 h; read-out: Percent Inhibition of ligand binding Serotonin (1 μM ligand concentration) 5-HT2A
T4 construct: expressed in transfected cells; host or cells: CHO-K1 cells
T4 sequence (P28223 whole entry): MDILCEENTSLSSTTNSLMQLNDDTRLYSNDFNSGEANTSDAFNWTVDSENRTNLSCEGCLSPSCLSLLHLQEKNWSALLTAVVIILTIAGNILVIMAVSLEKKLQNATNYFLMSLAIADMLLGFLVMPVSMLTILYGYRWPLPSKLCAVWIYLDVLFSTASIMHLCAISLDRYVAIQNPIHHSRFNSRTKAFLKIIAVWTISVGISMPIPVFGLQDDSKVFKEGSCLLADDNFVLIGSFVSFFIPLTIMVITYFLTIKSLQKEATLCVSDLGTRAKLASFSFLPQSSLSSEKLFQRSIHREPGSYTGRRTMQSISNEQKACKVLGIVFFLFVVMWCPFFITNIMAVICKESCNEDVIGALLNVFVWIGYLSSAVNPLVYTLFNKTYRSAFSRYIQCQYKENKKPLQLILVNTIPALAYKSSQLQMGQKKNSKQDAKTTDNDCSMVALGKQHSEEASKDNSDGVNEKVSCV
Description: To evaluate in radioligand binding assays the activity of compounds of the invention, human recombinant serotonin (5-Hydroxytryptamine) 5-HT2A receptor expressed in Chinese hamster ovary (CHO-K1) cells (Bonhaus, D. W. et al. Br. J. Pharmacol. 115:622, 1995; Saucier, C. and Albert, P. R., J. Neurochem. 68:1998, 1997) in a 50 mM Tris-HCl buffer, pH 7.4, was used. Compounds of the invention were incubated with 0.5 nM [^3H]Ketanserin for 60 minutes at 25° C. Non-specific binding was estimated in the presence of 1 μM Mianserin. Receptor proteins were filtered and washed, the filters were then counted to determine [^3H]Ketanserin specifically bound. Compounds were screened at 1 μM or lower, using 1% DMSO as vehicle. Biochemical assay results are presented as the percent inhibition of specific binding in Table 5.

[5] = biological target: T5, human recombinant serotonin (5-Hydroxytryptamine) 5-HT2C receptor (Homo sapiens, UniProt P28335); test: Serotonin 5-HT2C radioligand binding ([3H]Mesulergine); conditions: 1 h; read-out: Percent Inhibition of ligand binding Serotonin (1 μM ligand concentration) 5-HT2C
T5 construct: expressed in transfected cells; host or cells: CHO-K1 cells
T5 sequence (P28335 33-458): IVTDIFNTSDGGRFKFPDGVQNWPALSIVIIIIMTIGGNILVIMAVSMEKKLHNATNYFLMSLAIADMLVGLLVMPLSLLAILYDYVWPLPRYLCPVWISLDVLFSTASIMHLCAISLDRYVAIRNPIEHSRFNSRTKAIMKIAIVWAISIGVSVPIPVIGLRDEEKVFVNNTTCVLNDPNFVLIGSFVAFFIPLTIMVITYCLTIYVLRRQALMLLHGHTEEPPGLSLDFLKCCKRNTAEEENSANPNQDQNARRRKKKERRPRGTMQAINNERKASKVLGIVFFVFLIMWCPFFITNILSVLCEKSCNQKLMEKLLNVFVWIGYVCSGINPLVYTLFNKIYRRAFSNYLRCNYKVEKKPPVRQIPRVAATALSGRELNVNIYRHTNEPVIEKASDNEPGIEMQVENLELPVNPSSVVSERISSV
Description: Compounds of the invention were incubated with 1 nM [^3H]Mesulergine for 60 minutes at 25° C. Non-specific binding was estimated in the presence of 1 μM Mianserin. Receptor proteins were filtered and washed, the filters were then counted to determine [^3H]Mesulergine specifically bound. […] Biochemical assay results are presented as the percent inhibition of specific binding in Table 5.

[6] = biological target: T6, human recombinant serotonin (5-Hydroxytryptamine) 5-HT6 receptor (Homo sapiens, UniProt P50406); test: Serotonin 5-HT6 radioligand binding ([3H]LSD); conditions: 2 h; read-out: Percent Inhibition of ligand binding Serotonin (1 μM ligand concentration) 5-HT6
T6 construct: expressed in transfected cells; host or cells: human HeLa cells
T6 sequence (P50406 whole entry): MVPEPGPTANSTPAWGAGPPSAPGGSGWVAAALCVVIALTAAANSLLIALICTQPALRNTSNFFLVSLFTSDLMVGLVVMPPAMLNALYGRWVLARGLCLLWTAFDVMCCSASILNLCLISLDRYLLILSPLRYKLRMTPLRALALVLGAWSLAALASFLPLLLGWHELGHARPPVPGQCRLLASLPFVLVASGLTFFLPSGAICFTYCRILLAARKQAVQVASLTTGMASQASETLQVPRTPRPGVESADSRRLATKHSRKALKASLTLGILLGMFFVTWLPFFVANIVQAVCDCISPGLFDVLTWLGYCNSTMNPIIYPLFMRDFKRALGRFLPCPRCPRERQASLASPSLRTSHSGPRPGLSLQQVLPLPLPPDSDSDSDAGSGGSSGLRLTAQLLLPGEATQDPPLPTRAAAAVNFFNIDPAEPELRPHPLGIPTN
Description: To evaluate in radioligand binding assays the activity of compounds of the invention, human recombinant serotonin (5-Hydroxytryptamine) 5-HT6 receptor expressed in human HeLa cells (Monsma, F. J. Jr. et al., Mol. Pharmacol. 43:320, 1993) in a modified Tris-HCl buffer (50 mM Tris-HCl, pH 7.4, 150 mM NaCl, 2 mM Ascorbic Acid, 0.001% BSA) was used. Compounds of the invention were incubated with 1.5 nM [3H]Lysergic acid diethylamide (LSD) for 120 minutes at 37° C. Non-specific binding was estimated in the presence of […] Serotonin (5-HT). Receptor proteins were filtered and washed, the filters were then counted to determine [3H]LSD specifically bound. Compounds were screened at 1 μM or lower, using 1% DMSO as vehicle. Biochemical assay results are presented as the percent inhibition of specific binding in Table 5.

[7] = biological target: T7, human recombinant serotonin (5-Hydroxytryptamine) 5-HT7 receptor (Homo sapiens, UniProt P34969); test: Serotonin 5-HT7 radioligand binding ([3H]LSD); conditions: 2 h; read-out: Percent Inhibition of ligand binding Serotonin (1 μM ligand concentration) 5-HT7
T7 construct: expressed in transfected cells; host or cells: CHO cells
T7 sequence (P34969 whole entry): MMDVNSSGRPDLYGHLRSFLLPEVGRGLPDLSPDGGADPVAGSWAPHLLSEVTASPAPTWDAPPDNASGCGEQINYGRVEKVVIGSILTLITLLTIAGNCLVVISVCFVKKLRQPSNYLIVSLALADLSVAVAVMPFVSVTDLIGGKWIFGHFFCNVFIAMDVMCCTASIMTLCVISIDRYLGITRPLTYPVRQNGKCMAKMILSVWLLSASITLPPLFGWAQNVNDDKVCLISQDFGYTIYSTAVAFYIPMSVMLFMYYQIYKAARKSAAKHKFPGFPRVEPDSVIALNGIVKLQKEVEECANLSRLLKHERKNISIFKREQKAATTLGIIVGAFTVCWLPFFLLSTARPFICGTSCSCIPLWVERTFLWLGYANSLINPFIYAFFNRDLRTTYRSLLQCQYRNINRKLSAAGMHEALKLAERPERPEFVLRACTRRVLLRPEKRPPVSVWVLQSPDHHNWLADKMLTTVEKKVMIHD
Description: To evaluate in radioligand binding assays the activity of compounds of the invention, human recombinant serotonin (5-Hydroxytryptamine) 5-HT7 receptor expressed in Chinese hamster ovary (CHO) cells (Roth, B. L. et al., J. Pharmacol. Exp. Ther. 268:1403, 1994; Shen, Y. et al., J. Biol. Chem. 268:18200, 1993) in a modified Tris-HCl buffer (50 mM Tris-HCl, pH 7.4, 10 mM MgCl2, 0.5 mM EDTA) was used. Compounds of invention were incubated with 5.5 nM [^3H]Lysergic acid diethylamide (LSD) for 2 hours at 25° C. Non-specific binding was estimated in the presence of […] Serotonin (5-HT). Receptor proteins were filtered and washed, the filters were then counted to determine [^3H]LSD specifically bound. Compounds were screened at 1 μM or lower, using 1% DMSO as vehicle. Biochemical assay results are presented as the percent inhibition of specific binding in Table 5.

T1 sequence (P35367 whole entry): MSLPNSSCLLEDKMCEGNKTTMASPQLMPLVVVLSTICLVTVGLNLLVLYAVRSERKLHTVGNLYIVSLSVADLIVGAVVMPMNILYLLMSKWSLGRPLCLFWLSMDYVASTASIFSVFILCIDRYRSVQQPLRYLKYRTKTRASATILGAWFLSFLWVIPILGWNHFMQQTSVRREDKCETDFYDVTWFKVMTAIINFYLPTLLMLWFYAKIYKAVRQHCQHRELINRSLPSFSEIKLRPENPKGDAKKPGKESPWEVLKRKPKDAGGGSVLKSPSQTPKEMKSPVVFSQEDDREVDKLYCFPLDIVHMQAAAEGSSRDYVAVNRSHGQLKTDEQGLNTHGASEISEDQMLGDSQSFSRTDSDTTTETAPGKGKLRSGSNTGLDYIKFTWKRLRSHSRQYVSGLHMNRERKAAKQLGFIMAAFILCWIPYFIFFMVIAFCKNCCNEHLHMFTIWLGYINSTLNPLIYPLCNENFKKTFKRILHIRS

Structure (SMILES) | inhibition at 1 µM [1] [%] | inhibition at 1 µM [2] [%] | inhibition at 1 µM [3] [%] | inhibition at 1 µM [4] [%] | inhibition at 1 µM [5] [%] | inhibition at 1 µM [6] [%] | inhibition at 1 µM [7] [%]
CCC1c2c(c3cc(Cl)ccc3n2/C=C(\C)c2cccnc2)CCN1C (centres unmarked) [Compound 108] | 30 | 12 | -4 | 45 | 60 | 6 | 62
C/C(=C\n1c2c(c3cc(Cl)ccc31)CCN(C)C2C)c1ccc(F)c(F)c1 (centres unmarked) [Compound 111, 6-chloro-9-(2-(3,4-difluorophenyl)prop-1-enyl)-1,2-dimethyl-2,3,4,9-tetrahydro-1H-pyrido[3,4-b]indole] | 60 | 61 | 5 | 79 | 93 | 88 | 78
Cc1ccc2c(c1)c1c(n2C#Cc2ccc(Cl)cc2)C(C)N(C)CC1 (centres unmarked) [Compound 172, 9-((4-chlorophenyl)ethynyl)-1,2,6-trimethyl-2,3,4,9-tetrahydro-1H-pyrido[3,4-b]indole] | 11 | 45 | 1 | 96 | 100 | 10 | 1
CCC1c2c(c3cc(C)ccc3n2/C=C(\C)c2ccc(Cl)cc2Cl)CCN1C (centres unmarked) [Compound 170] | 27 | 60 | 1 | 96 | 98 | 36 | 74
C/C(=C/n1c2c(c3cc(C)ccc31)CCN(C)C2C)c1ccc(F)c(F)c1 (centres unmarked) [Compound 175, 9-(2-(3,4-difluorophenyl)prop-1-enyl)-1,2,6-trimethyl-2,3,4,9-tetrahydro-1H-pyrido[3,4-b]indole] | 25 | 60 | 0 | 86 | 97 | 77 | 82
C/C(=C/n1c2c(c3cc(C)ccc31)CCN(C)C2C)c1ccc(Cl)cc1Cl (centres unmarked) [Compound 169] | 20 | 50 | 5 | 80 | 91 | 24 | 78
CCC1c2c(c3cc(C)ccc3n2/C=C(\C)c2ccc(Cl)c(Cl)c2)CCN1C (centres unmarked) [Compound 177, 9-(2-(3,4-dichlorophenyl)prop-1-enyl)-1-ethyl-2,6-dimethyl-2,3,4,9-tetrahydro-1H-pyrido[3,4-b]indole] | 11 | 39 | 9 | 83 | 88 | 6 | 57
COc1ccc(/C(C)=C/n2c3c(c4cc(Cl)ccc42)CCN(C)C3)cc1F [Compound 122, 6-chloro-9-(2-(3-fluoro-4-methoxyphenyl)prop-1-enyl)-2-methyl-2,3,4,9-tetrahydro-1H-pyrido[3,4-b]indole] | 13 | 56 | 21 | 95 | 102 | 36 | 95
C/C(=C\n1c2c(c3cc(Cl)ccc31)CCN(C)C2)c1ccc(F)c(F)c1 [Compound 110, 6-chloro-9-(2-(3,4-difluorophenyl)prop-1-enyl)-2-methyl-2,3,4,9-tetrahydro-1H-pyrido[3,4-b]indole] | 25 | 64 | 10 | 93 | 97 | 73 | 87
Cc1ccc2c(c1)c1c(n2C(=O)Cc2ccc(Cl)cc2)CN(C)CC1 [Compound 173] | 12 | 49 | 22 | 95 | 90 | 48 | 81
C/C(=C\n1c2c(c3cc(C)ccc31)CCN(C)C2C)c1ccc(Cl)cc1Cl (centres unmarked) [Compound 178] | 44 | 54 | 3 | 97 | 101 | 25 | 59
